{"source": "patent US12435044B2", "about": "“Pyridazinone herbicides and pyridazinone intermediates used to prepare a herbicide” (FMC Corporation, priority 2018, dated 2025)", "assay_in_all_cases": "Test C pre-/postemergence greenhouse test", "type_in_all_cases": "in vivo", "key": {"[1]": {"tested_on": "barnyardgrass (Echinochloa crus-galli)", "settings": "scale 0 to 100", "excerpt": "(§1) Seeds of plant species selected from blackgrass (Alopecurus myosuroides), ryegrass, Italian (Lolium multiflorum), wheat, winter (winter wheat, Triticum aestivum), galium (catchweed bedstraw, Galium aparine), corn (Zea mays), crabgrass, large (Digitaria sanguinalis), foxtail, giant (Setaria faberii), johnsongrass (Sorghum halepense), lambsquarters (Chenopodium album), morningglory (Ipomoea coccinea), nutsedge, yellow (Cyperus esculentus), pigweed (Amaranthus retroflexus), ragweed (common ragweed, Ambrosia elatior), soybean (Glycine max), barnyardgrass (Echinochloa crus-galli), oilseed rape (Brassica napus), waterhemp (common waterhemp, Amaranthus rudis), pigweed, palmer (Amaranthus palmeri), kochia (Kochia scoparia), oat, wild (Avena fatua), surinam grass (Brachiaria decumbens), windgrass (Apera spica-venti), poinsettia, wild (Euphorbia heterophylla) and velvetleaf (Abutilon theophrasti) were planted into a silt loam soil and treated preemergence with test chemicals formulated in a non-phytotoxic solvent mixture which included a surfactant.\n(§2) At the same time, plants selected from these crop and weed species and also chickweed (common chickweed, Stellaria media), buckwheat, wild (Polygonum convolvulus), mustard, wild (Sinapis arvensis), field poppy (Papaver rhoeas), field violet (Viola arvensis), nightshade (eastern black nightshade, Solanum ptycanthum), speedwell (bird's-eye speedwell, Veronica persica), horseweed (Conyza canadensis), cutleaf geranium (Geranium dissectum), and Canada thistle (Cirsium arvense) were planted in pots containing Redi-Earth® planting medium (Scotts Company, 14111 Scottslawn Road, Marysville, Ohio 43041) comprising spaghnum peat moss, vermiculite, wetting agent and starter nutrients and treated with postemergence applications of test chemicals formulated in the same manner. Plants ranged in height from 2 to 18 cm (1- to 4-leaf stage) for postemergence treatments. Treated plants and controls were maintained in a greenhouse for 13 to 21 d, after which time all species were compared to controls and visually evaluated. Plant response ratings, summarized in Table C-1 (postemergence) and C-2 (preemergence), are based on a scale of 0 to 100 where 0 is no effect and 100 is complete control. A dash (-) response means no test result."}, "[2]": {"tested_on": "velvetleaf (Abutilon theophrasti)", "settings": "Preemergence, scale 0 to 100", "excerpt": "as §1, §2"}, "[3]": {"tested_on": "wheat, winter (winter wheat, Triticum aestivum)", "settings": "scale 0 to 100", "excerpt": "as §1, §2"}, "[4]": {"tested_on": "corn (Zea mays)", "settings": "scale 0 to 100", "excerpt": "as §1, §2"}, "[5]": {"tested_on": "ryegrass, Italian (Lolium multiflorum)", "settings": "Preemergence, scale 0 to 100", "excerpt": "as §1, §2"}, "[6]": {"tested_on": "poinsettia, wild (Euphorbia heterophylla)", "settings": "Preemergence, scale 0 to 100", "excerpt": "as §1, §2"}, "[7]": {"tested_on": "crabgrass, large (Digitaria sanguinalis)", "settings": "scale 0 to 100", "excerpt": "as §1, §2"}, "[8]": {"tested_on": "windgrass (Apera spica-venti)", "settings": "Preemergence, scale 0 to 100", "excerpt": "as §1, §2"}, "[9]": {"tested_on": "johnsongrass (Sorghum halepense)", "settings": "Preemergence, scale 0 to 100", "excerpt": "as §1, §2"}, "[10]": {"tested_on": "ragweed (common ragweed, Ambrosia elatior)", "settings": "scale 0 to 100", "excerpt": "as §1, §2"}, "[11]": {"tested_on": "surinam grass (Brachiaria decumbens)", "settings": "Preemergence, scale 0 to 100", "excerpt": "as §1, §2"}, "[12]": {"tested_on": "oilseed rape (Brassica napus)", "settings": "Preemergence, scale 0 to 100", "excerpt": "as §1, §2"}, "[13]": {"tested_on": "nutsedge, yellow (Cyperus esculentus)", "settings": "Preemergence, scale 0 to 100", "excerpt": "as §1, §2"}}, "data": [{"smiles": "Cc1ccc2ccc(F)cc2c1-c1c(O)c(Cl)nn(C)c1=O", "note": "[Cpd. No. 21]", "values": [{"measurement": "Plant response rating, Barnyardgrass", "setting": "[1]; Postemergence, 16 g ai/ha", "value": 60}, {"measurement": "Plant response rating, Barnyardgrass", "setting": "[1]; Postemergence, 31 g ai/ha", "value": 85}, {"measurement": "Plant response rating, Barnyardgrass", "setting": "[1]; Postemergence, 62 g ai/ha", "value": 90}, {"measurement": "Plant response rating, Barnyardgrass", "setting": "[1]; Postemergence, 125 g ai/ha", "value": 90}, {"measurement": "Plant response rating, Barnyardgrass", "setting": "[1]; Preemergence, 31 g ai/ha", "value": 75}, {"measurement": "Plant response rating, Barnyardgrass", "setting": "[1]; Preemergence, 61 g ai/ha", "value": 25}, {"measurement": "Plant response rating, Barnyardgrass", "setting": "[1]; Preemergence, 62 g ai/ha", "value": 85}, {"measurement": "Plant response rating, Barnyardgrass", "setting": "[1]; Preemergence, 125 g ai/ha", "value": 95}, {"measurement": "Plant response rating, Velvetleaf", "setting": "[2]; 31 g ai/ha", "value": 75}, {"measurement": "Plant response rating, Velvetleaf", "setting": "[2]; 61 g ai/ha", "value": 40}, {"measurement": "Plant response rating, Velvetleaf", "setting": "[2]; 62 g ai/ha", "value": 75}, {"measurement": "Plant response rating, Velvetleaf", "setting": "[2]; 125 g ai/ha", "value": 95}, {"measurement": "Plant response rating, Wheat", "setting": "[3]; Postemergence, 16 g ai/ha", "value": 45}, {"measurement": "Plant response rating, Wheat", "setting": "[3]; Postemergence, 31 g ai/ha", "value": 65}, {"measurement": "Plant response rating, Wheat", "setting": "[3]; Postemergence, 62 g ai/ha", "value": 78}, {"measurement": "Plant response rating, Wheat", "setting": "[3]; Postemergence, 125 g ai/ha", "value": 80}, {"measurement": "Plant response rating, Wheat", "setting": "[3]; Preemergence, 31 g ai/ha", "value": 90}, {"measurement": "Plant response rating, Wheat", "setting": "[3]; Preemergence, 61 g ai/ha", "value": 5}, {"measurement": "Plant response rating, Wheat", "setting": "[3]; Preemergence, 62 g ai/ha", "value": 90}, {"measurement": "Plant response rating, Wheat", "setting": "[3]; Preemergence, 125 g ai/ha", "value": 90}, {"measurement": "Plant response rating, Corn", "setting": "[4]; Postemergence, 16 g ai/ha", "value": 0}, {"measurement": "Plant response rating, Corn", "setting": "[4]; Postemergence, 31 g ai/ha", "value": 0}, {"measurement": "Plant response rating, Corn", "setting": "[4]; Postemergence, 62 g ai/ha", "value": 15}, {"measurement": "Plant response rating, Corn", "setting": "[4]; Postemergence, 125 g ai/ha", "value": 18}, {"measurement": "Plant response rating, Corn", "setting": "[4]; Preemergence, 31 g ai/ha", "value": 0}, {"measurement": "Plant response rating, Corn", "setting": "[4]; Preemergence, 61 g ai/ha", "value": 0}, {"measurement": "Plant response rating, Corn", "setting": "[4]; Preemergence, 62 g ai/ha", "value": 5}, {"measurement": "Plant response rating, Corn", "setting": "[4]; Preemergence, 125 g ai/ha", "value": 20}, {"measurement": "Plant response rating, Ryegrass, Italian", "setting": "[5]; 31 g ai/ha", "value": 98}, {"measurement": "Plant response rating, Ryegrass, Italian", "setting": "[5]; 61 g ai/ha", "value": 50}, {"measurement": "Plant response rating, Ryegrass, Italian", "setting": "[5]; 62 g ai/ha", "value": 98}, {"measurement": "Plant response rating, Ryegrass, Italian", "setting": "[5]; 125 g ai/ha", "value": 100}, {"measurement": "Plant response rating, Poinsettia, Wild", "setting": "[6]; 31 g ai/ha", "value": 5}, {"measurement": "Plant response rating, Poinsettia, Wild", "setting": "[6]; 61 g ai/ha", "value": 0}, {"measurement": "Plant response rating, Poinsettia, Wild", "setting": "[6]; 62 g ai/ha", "value": 10}, {"measurement": "Plant response rating, Poinsettia, Wild", "setting": "[6]; 125 g ai/ha", "value": 25}, {"measurement": "Plant response rating, Crabgrass, Large", "setting": "[7]; Postemergence, 16 g ai/ha", "value": 40}, {"measurement": "Plant response rating, Crabgrass, Large", "setting": "[7]; Postemergence, 31 g ai/ha", "value": 70}, {"measurement": "Plant response rating, Crabgrass, Large", "setting": "[7]; Postemergence, 62 g ai/ha", "value": 40}, {"measurement": "Plant response rating, Crabgrass, Large", "setting": "[7]; Postemergence, 125 g ai/ha", "value": 70}, {"measurement": "Plant response rating, Crabgrass, Large", "setting": "[7]; Preemergence, 31 g ai/ha", "value": 25}, {"measurement": "Plant response rating, Crabgrass, Large", "setting": "[7]; Preemergence, 61 g ai/ha", "value": 0}, {"measurement": "Plant response rating, Crabgrass, Large", "setting": "[7]; Preemergence, 62 g ai/ha", "value": 30}, {"measurement": "Plant response rating, Crabgrass, Large", "setting": "[7]; Preemergence, 125 g ai/ha", "value": 65}, {"measurement": "Plant response rating, Windgrass", "setting": "[8]; 31 g ai/ha", "value": 75}, {"measurement": "Plant response rating, Windgrass", "setting": "[8]; 61 g ai/ha", "value": 50}, {"measurement": "Plant response rating, Windgrass", "setting": "[8]; 62 g ai/ha", "value": 85}, {"measurement": "Plant response rating, Windgrass", "setting": "[8]; 125 g ai/ha", "value": 98}, {"measurement": "Plant response rating, Johnsongrass", "setting": "[9]; 31 g ai/ha", "value": 10}, {"measurement": "Plant response rating, Johnsongrass", "setting": "[9]; 61 g ai/ha", "value": 5}, {"measurement": "Plant response rating, Johnsongrass", "setting": "[9]; 62 g ai/ha", "value": 50}, {"measurement": "Plant response rating, Johnsongrass", "setting": "[9]; 125 g ai/ha", "value": 65}, {"measurement": "Plant response rating, Ragweed", "setting": "[10]; Postemergence, 16 g ai/ha", "value": 90}, {"measurement": "Plant response rating, Ragweed", "setting": "[10]; Postemergence, 31 g ai/ha", "value": 95}, {"measurement": "Plant response rating, Ragweed", "setting": "[10]; Postemergence, 62 g ai/ha", "value": 98}, {"measurement": "Plant response rating, Ragweed", "setting": "[10]; Postemergence, 125 g ai/ha", "value": 98}, {"measurement": "Plant response rating, Ragweed", "setting": "[10]; Preemergence, 31 g ai/ha", "value": 100}, {"measurement": "Plant response rating, Ragweed", "setting": "[10]; Preemergence, 61 g ai/ha", "value": 45}, {"measurement": "Plant response rating, Ragweed", "setting": "[10]; Preemergence, 62 g ai/ha", "value": 98}, {"measurement": "Plant response rating, Ragweed", "setting": "[10]; Preemergence, 125 g ai/ha", "value": 95}, {"measurement": "Plant response rating, Surinam Grass", "setting": "[11]; 31 g ai/ha", "value": 100}, {"measurement": "Plant response rating, Surinam Grass", "setting": "[11]; 61 g ai/ha", "value": 80}, {"measurement": "Plant response rating, Surinam Grass", "setting": "[11]; 62 g ai/ha", "value": 100}, {"measurement": "Plant response rating, Surinam Grass", "setting": "[11]; 125 g ai/ha", "value": 100}, {"measurement": "Plant response rating, Oilseed Rape", "setting": "[12]; 31 g ai/ha", "value": 85}, {"measurement": "Plant response rating, Oilseed Rape", "setting": "[12]; 61 g ai/ha", "value": 0}, {"measurement": "Plant response rating, Oilseed Rape", "setting": "[12]; 62 g ai/ha", "value": 98}, {"measurement": "Plant response rating, Oilseed Rape", "setting": "[12]; 125 g ai/ha", "value": 100}, {"measurement": "Plant response rating, Nutsedge, Yellow", "setting": "[13]; 31 g ai/ha", "value": 60}, {"measurement": "Plant response rating, Nutsedge, Yellow", "setting": "[13]; 61 g ai/ha", "value": 30}, {"measurement": "Plant response rating, Nutsedge, Yellow", "setting": "[13]; 62 g ai/ha", "value": 85}, {"measurement": "Plant response rating, Nutsedge, Yellow", "setting": "[13]; 125 g ai/ha", "value": 95}]}]}
